Where two headings read alike, the source gives them in different places.
Columns and labels:
androgen receptor (AR) [1] = target: T1, androgen receptor (AR) (Homo sapiens, UniProt P10275); test: Keratinocyte AR Reporter Gene Assay, 24 and 72 hours continuous exposure (Example 12); type: cell-based; conditions: keratinocytes
T1 construct: human keratinocytes transfected with an AR luciferase reporter gene; endogenous in cells; host or cells: normal human adult primary epidermal keratinocytes (ATCC PCS-200-011)
T1 sequence (P10275 1-920): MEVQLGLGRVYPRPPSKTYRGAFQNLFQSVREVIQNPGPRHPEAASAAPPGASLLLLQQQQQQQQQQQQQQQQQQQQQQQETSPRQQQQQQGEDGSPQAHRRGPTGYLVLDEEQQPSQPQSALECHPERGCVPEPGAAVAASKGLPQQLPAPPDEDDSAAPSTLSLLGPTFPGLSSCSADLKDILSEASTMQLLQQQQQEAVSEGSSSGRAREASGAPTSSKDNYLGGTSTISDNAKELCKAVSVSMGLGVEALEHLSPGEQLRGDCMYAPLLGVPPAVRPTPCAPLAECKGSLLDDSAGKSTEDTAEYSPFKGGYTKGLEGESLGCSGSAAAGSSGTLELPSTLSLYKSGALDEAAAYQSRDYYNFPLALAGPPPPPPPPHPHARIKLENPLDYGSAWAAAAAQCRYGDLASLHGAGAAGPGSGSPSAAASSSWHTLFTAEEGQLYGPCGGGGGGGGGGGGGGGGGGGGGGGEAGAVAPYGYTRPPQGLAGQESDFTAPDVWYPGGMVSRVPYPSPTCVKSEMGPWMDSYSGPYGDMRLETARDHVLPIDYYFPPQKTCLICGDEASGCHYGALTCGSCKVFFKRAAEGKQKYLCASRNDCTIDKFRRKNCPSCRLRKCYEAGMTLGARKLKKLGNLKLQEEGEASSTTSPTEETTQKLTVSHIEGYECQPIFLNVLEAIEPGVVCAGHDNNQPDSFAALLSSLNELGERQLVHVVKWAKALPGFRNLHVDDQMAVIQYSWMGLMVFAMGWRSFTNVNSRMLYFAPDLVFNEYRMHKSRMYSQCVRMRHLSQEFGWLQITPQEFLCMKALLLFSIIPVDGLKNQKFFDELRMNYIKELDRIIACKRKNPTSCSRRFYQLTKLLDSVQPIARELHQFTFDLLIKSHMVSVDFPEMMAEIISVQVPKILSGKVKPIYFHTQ
Description: (§1) To assess ARE-mediated inhibition, an AR luciferase assay was performed. After washing cells with 1×PBS, 20 μL lysis buffer (25 mM Tris/phosphate, 4 mM EGTA, 1% Triton, 10% glycerol, 2 mM DTT) was added per well, incubated for 5 minutes with gentle shaking and store at −80° C. On the day of assay, the plates were thawed to ambient temperature and 80 μL of assay buffer (25 mM glycylglycine, 15 mM MgCl2. 5 mM ATP, 0.1 mg/ml BSA) was added to each well. Plates are then processed on a microplate reader (POLARstar Omega) by injecting 100 μL of 1 mM D-luciferin per well, followed by chemiluminescence measurement of 3 seconds at onset of injection. Luciferase activity was determined, measured, and normalized to Relative Light Units (RLU). AR reporter gene activity reduction values were calculated as follows: AR reporter gene activity=1−(average signal (treatment group)/average signal (treatment group without drug).
This example illustrates how to determine the inhibitory activity of an ARE disclosed herein using a cell-based androgen receptor transcriptional reporter assay using primary human keratinocytes.
Results were analyzed for IC50 and IC90 values in GraphPad Prism using a four-parameter logistic curve equation. Bottom constraints were set to 1 (level of uninduced control).

[2] = test system: normal Human Adult Primary Epidermal Keratinocyte cell line; conditions: 72 h
Description: (§3) For the Keratinocyte assay, normal Human Adult Primary Epidermal Keratinocyte cell line (ATCC PCS-200-011) was maintained in EPIUFE® Medium, with 60 μM calcium (Thermo MEPISOOCA) supplemented with Human Keratinocyte Growth Supplement, 100 U/mL penicillin, and 100 μg/mL streptomycin at 37° C. with 5% C02. For experiments, cells were seeded at 70% confluence per well in 100 μL of medium in 96-well plates. Reverse transfection was done on the cells using Lipofectamine 3000 (Life Technologies) with plasmids according to manufacturer's instructions. Briefly, 0.3 μL transfection reagent per 100 ng DNA were incubated with P3000 reagent and Opti-Mem prior to addition of cells. After 16 hours, medium was removed and replaced with dosing medium.
(§4) Each ARE tested was prepared in DMSO. Dosing medium was prepared at the time of treatment by serial diluting stock solution into medium. Ethanol concentrations in media never exceeded 0.1%. […] Negative control wells contained 100 L medium/well with 1 μL of ethanol/mL of medium and an appropriate amount of DMSO. […] Cells were incubated 72 hours at 37° C. without CO2.

in vitro = conditions: human
Description: as §3, §4

[3] = Hamster Skin Penetration Assays; conditions: 8-hour time point
Description: The applied formulation dose for each sample was 10.0 μL and each sample was run in four replicates. The samples were evaluated at the 8-hour time point for compound absorption in epidermal and dermal layers and penetration into receptor medium.

[4] = test system: MDA-kb2 mammary gland breast cancer cell line; test: MDA-kb2 cell viability (Trypan Blue exclusion); conditions: MDA-kb2, 1.0 nM DHT, 24 hours
Description: (§5) For the MDA-kb2 assay, MDA-kb2 mammary gland breast cancer cell line was maintained in L-15 media (Gibco) supplemented with 10% FBS, 100 U/mL penicillin, 100 μg/mL streptomycin, and 0.25 μg/mL amphotericin B at 37° C., without CO2. For experiments, cells were plated at 1.0×10^4 cells (50% confluence) per well in 100 μL of medium in 96-well plates. When cells were attached (after 6 hours), medium was removed and replaced with dosing medium containing 10% charcoal stripped FBS.
(§6) A 5α-Androstan-17β-ol-3-one (DHT) stock solution was prepared at 1,000× in ethanol. Each ARE tested was prepared in DMSO. Dosing medium was prepared at the time of treatment by serial diluting stock solution into medium. Ethanol concentrations in media never exceeded 0.1%. […] Negative control wells contained 100 μL medium/well with 1 μL of ethanol/mL of medium and an appropriate amount of DMSO. Each plate also contained 1.0 nM DHT with an ARE or without an ARE as a positive control. Cells were incubated 24 hours at 37° C. without CO2.
(§7) To assess for cell viability, cells were first visually examined under a phase-contrast microscope to record cell confluence, morphological changes, and presence of drug crystallization as well as to observe signs of cytotoxity such as, e.g., detachment, vacuolization, membrane degradation, or lack of phase brightness. After microscopic inspection, a Trypan Blue exclusion assay was performed to assess cell viability and cell number for each well. Each well was washed with 0.5 mL volume of PBS. 30 µL of Trypan Blue was added to each well for 5-10 minutes. Total cell number and total viable cell number will be counted from 1 number of fields per well, in triplicate.

[5] = test system: normal Human Adult Primary Epidermal Keratinocyte cell line; test: Keratinocyte cell viability (Trypan Blue exclusion, Example 10); conditions: keratinocytes, 1.0 nM DHT, 24 hours
Description: For the Keratinocyte assay, normal Human Adult Primary Epidermal Keratinocyte cell line (ATCC PCS-200-011) was maintained in EPIUFE® Medium, with 60 μM calcium (Thermo MEPISOOCA) supplemented with Human Keratinocyte Growth Supplement, 100 U/mL penicillin, and 100 μg/mL streptomycin at 37° C. with 5% C02. For experiments, cells were seeded at 70% confluence per well in 100 μL of medium in 96-well plates. […] After 16 hours, medium was removed and replaced with dosing medium.
A 5α-Androstan-17β-ol-3-one (DHT) stock solution was prepared at 1,000× in ethanol. […] Dosing medium was prepared at the time of treatment by serial diluting stock solution into medium. Ethanol concentrations in media never exceeded 0.1%. […] Negative control wells contained 100 μL medium/well with 1 μL of ethanol/mL of medium and an appropriate amount of DMSO. Each plate also contained 1.0 nM DHT with an ARE or without an ARE as a positive control. Cells were incubated 24 hours at 37° C. without CO2.
as §7

androgen receptor (AR) [6] = target: T1, androgen receptor (AR); test: Keratinocyte AR protein level ELISA (Example 10); type: cell-based; conditions: 24 h, keratinocytes, AR protein level by ELISA, read-out: AR Reduction
Description: (§2) Each ARE tested was prepared in DMSO. […] Ethanol concentrations in media never exceeded 0.1%.
To assess levels of AR, an ELISA was performed.

androgen receptor (AR) [7] = target: T1, androgen receptor (AR); test: Keratinocyte AR luciferase reporter gene assay (Example 10); type: cell-based; conditions: keratinocytes, 1.0 nM DHT, 24 hours, read-out: Gene Activity Reduction
Description: as §2, §1

[8] = test system: MDA-kb2 mammary gland breast cancer cell line; conditions: human, 24 h
Description: as §5, §6, §7

androgen receptor (AR) [9] = target: androgen receptor (AR) (Homo sapiens, UniProt P10275); test: MDA-kb2 AR luciferase reporter gene assay (1.0 nM DHT); type: cell-based; conditions: read-out: Gene Activity Reduction
Description: This example illustrates how to determine the inhibitory activity of an ARE disclosed herein using a cell-based androgen receptor transcriptional reporter assay using an engineered cell line.
as §2, §1

[10] = test system: normal Human Adult Primary Epidermal Keratinocyte cell line; test: Keratinocyte Cell Viability Assay (Example 11, 72 hours); conditions: keratinocytes, 72 hours, 0 μM = 100
Description: as §3, §4

[11] = as above; conditions: human
Description: as §3, §4

Cc1ncsc1-c1ccc([C@H](C)NC(=O)[C@@H]2C[C@@H](O)CN2C(=O)[C@@H](NC(=O)COCC(=O)N2CCN(c3ccc(OC[C@H]4CO[C@](Cn5ccnc5)(c5ccc(Cl)cc5Cl)O4)cc3)CC2)C(C)(C)C)cc1 [SPG-007]
IC50 (androgen receptor (AR) [1]; 24-hr Treatment): 4.58 µM
IC90 (androgen receptor (AR) [1]; 24-hr Treatment): 73.8 µM
Maximum Inhibition (androgen receptor (AR) [1]; 24-hr Treatment): 67%
IC50 (androgen receptor (AR) [1]; 72-hr Treatment): 1.5 µM
IC90 (androgen receptor (AR) [1]; 72-hr Treatment): 22.2 µM
Maximum Inhibition (androgen receptor (AR) [1]; 72-hr Treatment): 80%

O=C(Nc1ccc([N+](=O)[O-])cc1Cl)c1cc(Cl)ccc1O [Niclosamide]
Cell Viability ([2]; 0.62 μM): 34.13 ± 2.99
Cell Viability ([2]; 1.85 μM): 30.65 ± 5.98
Cell Viability ([2]; 5.56 μM): 25.07 ± 3.81
Cell Viability ([2]; 16.67 μM): 15.93 ± 7.45
Cell Viability ([2]; 50 μM): 0.20 ± 6.09
IC50 at 72 h (in vitro): < 0.2 µM

CC(=O)S[C@@H]1CC2=CC(=O)CC[C@]2(C)[C@H]2CC[C@@]3(C)[C@@H](CC[C@@]34CCC(=O)O4)[C@H]12 [SPG-001, Spironolactone]
skin absorption (in words) [3]: good amount
skin penetration (in words) [3]: good amount
Cell Viability ([2]; 0.62 μM): 113.05 ± 1.09
Cell Viability ([2]; 1.85 μM): 108.09 ± 1.79
Cell Viability ([2]; 5.56 μM): 99.27 ± 1.50
Cell Viability ([2]; 16.67 μM): 82.73 ± 1.34
Cell Viability ([2]; 50 μM): 58.33 ± 2.39
Cell Viability ([4]; 0.1 μM): 99%
Cell Viability ([4]; 1.0 μM): 98%
Cell Viability ([4]; 3.0 μM): 98%
Cell Viability ([4]; 10 μM): 98%
IC50 at 72 h (in vitro): 50 µM
Cell Viability ([5]; 0.1 μM): 92%
Cell Viability ([5]; 1.0 μM): 94%
Cell Viability ([5]; 3.0 μM): 92%
Cell Viability ([5]; 10 μM): 95%

Cc1ncsc1-c1ccc([C@H](C)NC(=O)[C@@H]2C[C@@H](O)CN2C(=O)[C@@H](NC(=O)COCCOCCOCC(=O)N2CCN(c3ccc(OC[C@H]4CO[C@](Cn5ccnc5)(c5ccc(Cl)cc5Cl)O4)cc3)CC2)C(C)(C)C)cc1 [SPG-008]
IC50 (androgen receptor (AR) [1]; 24-hr Treatment): 3.31 µM
IC90 (androgen receptor (AR) [1]; 24-hr Treatment): 8.4 µM
Maximum Inhibition (androgen receptor (AR) [1]; 24-hr Treatment): 94%
IC50 (androgen receptor (AR) [1]; 72-hr Treatment): 2.38 µM
IC90 (androgen receptor (AR) [1]; 72-hr Treatment): 7.86 µM
Maximum Inhibition (androgen receptor (AR) [1]; 72-hr Treatment): 94%

O=C(CC12CC3CC(CC(C3)C1)C2)N1CCN(c2ccc(OC[C@H]3CO[C@](Cn4ccnc4)(c4ccc(Cl)cc4Cl)O3)cc2)CC1 [SPG-006]
inhibition at 0.1 µM (androgen receptor (AR) [6]): 1%
inhibition at 1 µM (androgen receptor (AR) [6]): 5%
inhibition at 3 µM (androgen receptor (AR) [6]): 20%
inhibition at 10 µM (androgen receptor (AR) [6]): 37%
Cell Viability ([5]; 0.1 μM): 93%
Cell Viability ([5]; 1.0 μM): 94%
Cell Viability ([5]; 3.0 μM): 94%
Cell Viability ([5]; 10 μM): 94%
inhibition at 0.1 µM (androgen receptor (AR) [7]): 8%
inhibition at 1 µM (androgen receptor (AR) [7]): 19%
inhibition at 3 µM (androgen receptor (AR) [7]): 28%
inhibition at 10 µM (androgen receptor (AR) [7]): 48%

CC12CCC(=O)C=C1C[C@@H](SC(=O)COCCOCCNC(=O)CC13CC4CC(CC(C4)C1)C3)C1C2CCC2(C)C1CC[C@@]21CCC(=O)O1 (stereo partly shown) [SPG-004]
Cell Viability ([8]; 0.1 μM): 97%
Cell Viability ([8]; 1 μM): 98%
Cell Viability ([8]; 3 μM): 99%
Cell Viability ([8]; 10 μM): 98%
inhibition at 0.1 µM (androgen receptor (AR) [9]; MDA-kb2, 24 h): 11%
inhibition at 1 µM (androgen receptor (AR) [9]; MDA-kb2, 24 h): 22%
inhibition at 3 µM (androgen receptor (AR) [9]; MDA-kb2, 24 h): 36%
inhibition at 10 µM (androgen receptor (AR) [9]; MDA-kb2, 24 h): 42%

CC(=O)N1CCN(c2ccc(OC[C@H]3CO[C@](Cn4ccnc4)(c4ccc(Cl)cc4Cl)O3)cc2)CC1 (racemic) [SPG-002, Ketoconazole]
Cell Viability ([2]; 0.62 μM): 93.61 ± 3.38
Cell Viability ([2]; 1.85 μM): 90.96 ± 2.34
Cell Viability ([2]; 5.56 μM): 71.22 ± 0.88
Cell Viability ([2]; 16.67 μM): 41.59 ± 1.76
Cell Viability ([2]; 50 μM): 7.29 ± 12.16
Cell Viability ([4]; 0.1 μM): 97%
IC50 at 72 h (in vitro): 11 µM
Cell Viability ([5]; 0.1 μM): 95%
Cell Viability ([5]; 3.0 μM): 94%
Cell Viability ([5]; 10 μM): 95%

O=C(CC12CC3CC(CC(C3)C1)C2)NCCOCCOCC(=O)N1CCN(c2ccc(OC[C@H]3CO[C@](Cn4ccnc4)(c4ccc(Cl)cc4Cl)O3)cc2)CC1 [SPG-005]
inhibition at 0.1 µM (androgen receptor (AR) [6]): 12%
inhibition at 1 µM (androgen receptor (AR) [6]): 19%
inhibition at 3 µM (androgen receptor (AR) [6]): 23%
inhibition at 10 µM (androgen receptor (AR) [6]): 65%
Cell Viability ([4]; 0.1 μM): 98%
Cell Viability ([4]; 1.0 μM): 98%
Cell Viability ([4]; 3.0 μM): 98%
Cell Viability ([4]; 10 μM): 98%
Cell Viability ([5]; 0.1 μM): 94%
Cell Viability ([5]; 1.0 μM): 92%
Cell Viability ([5]; 3.0 μM): 93%
Cell Viability ([5]; 10 μM): 94%
Cell Viability ([10]; 0.62 μM): 77.01 ± 0.64
Cell Viability ([10]; 1.85 μM): 62.57 ± 2.06
Cell Viability ([10]; 5.56 μM): 1.98 ± 8.39
Cell Viability ([10]; 16.67 μM): 0.11 ± 1.77
Cell Viability ([10]; 50 μM): 0.09 ± 6.41
Cell Viability ([10]; […]): 93.72 ± 1.69
IC50 at 72 h [11]: 2 µM
inhibition at 0.1 µM (androgen receptor (AR) [7]): 21%
inhibition at 1 µM (androgen receptor (AR) [7]): 29%
inhibition at 3 µM (androgen receptor (AR) [7]): 31%
inhibition at 10 µM (androgen receptor (AR) [7]): 90%
inhibition at 0.1 µM (androgen receptor (AR) [9]; 0.1 μM, MDA-kb2, 1.0 nM DHT, 24 hours): 9%
inhibition at 1 µM (androgen receptor (AR) [9]; 1.0 μM, MDA-kb2, 1.0 nM DHT, 24 hours): 14%
inhibition at 3 µM (androgen receptor (AR) [9]; 3.0 μM, MDA-kb2, 1.0 nM DHT, 24 hours): 18%
inhibition at 10 µM (androgen receptor (AR) [9]; 10 μM, MDA-kb2, 1.0 nM DHT, 24 hours): 80%

Reference: patent US12319681B2, “Tripartite androgen receptor eliminators, methods and uses thereof” (SPG Therapeutics, Inc., priority 2017, dated 2025)
